The values below come from ChEMBL document CHEMBL5120771, “Synthesis, equilibrium, and biological study of a C-7 glucose boronic acid derivative as a potential candidate for boron neutron capture therapy” (Bioorg Med Chem, 2022).

Series [1] has as its system Fibroblast. The series can be described thus: Cytotoxicity against human fibroblasts assessed as reduction in cell viability at 0.01 to 3 mM measured after 24 hrs by MTT assay. As to conditions: 3000 µM, dose 0.01-3 mM. The class given is toxicity, cell-based.
Series [2] concerns Fibroblast. The series can be described thus: Cytotoxicity against human fibroblasts assessed as reduction in cell viability at 0.01 to 3 mM measured after 72 hrs by MTT assay relative to control. In kind it is toxicity, cell-based. Particulars: 3000 µM, dose 0.01-3 mM. A general note: Formazan colour is commonly taken as a measure of viable cells.
A short description of series [3]: Drug uptake in human fibroblasts assessed as boron accumulation at 1 mM measured after 24 hrs per mg of cell pellet by ICP-MS analysis (reference value: 0.30 +/- 0.09 ng/mg). In kind it is ADME, cell-based. Particulars: fibroblast, 1000 µM.
In series [4] the test system is D54 cell line. The series can be described thus: Cytotoxicity against human D54 cells assessed as cell killing at 1 mM measured after 72 hrs by MTT assay. The class given is functional.
Series [5] is described as follows: Drug uptake in human D54 cells assessed as boron accumulation at 1 mM measured after 2 hrs per mg of cell pellet by ICP-MS analysis (reference value: 0.15 +/- 0.19 ng/mg). The class given is ADME, cell-based. As to conditions: d54, 2 h, 1000 µM.
A short description of series [6]: Drug uptake in human D54 cells assessed as boron accumulation at 1 mM measured after 24 hrs per mg of cell pellet by ICP-MS analysis (reference value: 0.15 +/- 0.19 ng/mg). As to conditions: d54, 24 h, 1000 µM. In kind it is ADME, cell-based.

Take `OB1CC[C@H]2OC(O)[C@H](O)[C@@H](O)[C@@H]2O1` (some centres not stated): the Activity result was “Non-Toxic” in series [1], -10% in series [2] and 15% in series [4]. Moreover, the values for the Drug uptake in series [3], in series [5] and in series [6] were 0.85 ng/mg, 3 ng/mg and 6 ng/mg, respectively.
`N[C@@H](Cc1ccc(B(O)O)cc1)C(=O)O`: in series [2], the Activity was -19%.
